# Measured values: patent EP0334244A2, “Bradykinin Antagonist Peptides” (THE PROCTER & GAMBLE COMPANY, priority 1988, dated 1989)
# “And” between values parts separate entries of the source, which are not always exact repeats. Equal entries are not always repeated. Non-standard residues stand in square brackets, D forms with d. Residues, ends and D or L forms follow the SMILES beside them. Hyp = O=C(O)[C@@H]1C[C@@H](O)CN1
# Experiments:
# Bradykinin receptor = target: T1, Bradykinin receptor (Mus musculus, UniProt P32299); assay: Cell culture method: inhibition of bradykinin-induced increase in cytosolic free calcium in fura-2 loaded NG108-15 cells; assay type: cell-based; conditions: for agonist / antagonist activity in this assay: result in words
# T1 construct: suspensions of cultured NG108-15 cells loaded with the Ca²⁺-sensitive fluorescent indicator fura-2; endogenous in cells; host or cells: NG108-15 cells (University of California at San Francisco, Cell Culture Facility)
# T1 sequence (P32299 1-392): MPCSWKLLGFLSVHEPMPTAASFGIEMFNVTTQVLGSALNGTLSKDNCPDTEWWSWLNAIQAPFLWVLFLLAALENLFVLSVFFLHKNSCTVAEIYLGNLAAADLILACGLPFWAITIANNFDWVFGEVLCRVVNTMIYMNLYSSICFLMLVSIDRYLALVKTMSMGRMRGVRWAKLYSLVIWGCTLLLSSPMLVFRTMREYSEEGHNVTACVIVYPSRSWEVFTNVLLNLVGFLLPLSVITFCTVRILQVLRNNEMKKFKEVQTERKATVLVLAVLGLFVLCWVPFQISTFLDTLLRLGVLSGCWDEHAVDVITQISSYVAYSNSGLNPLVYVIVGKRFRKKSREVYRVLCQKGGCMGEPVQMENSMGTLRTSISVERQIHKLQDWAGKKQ
# Procedure: In many different tissues and isolated cell populations, bradykinin induces a receptor mediated rise in the concentration of cytosolic free calcium ([Ca²⁺]i). In cultured NG108-15 neuronal cells (University of California at San Francisco, Cell Culture Facility, San Francisco, California), bradykinin increases [Ca²⁺]i in a dose dependent manner from a basal concentration of about 260 nM to approximately 1000 nM at a maximally effective concentration of bradykinin (1 X 10⁻⁶M). The half maximally effective concentration (EC₅₀) of bradykinin is 3 X 10⁻⁹M. Bradykinin receptor antagonist potency is evaluated by determining the concentration of antagonist required to inhibit by 50% (IC₅₀) the increase in [Ca²⁺]i induced by 1 X 10⁻⁹M bradykinin (Bachem, Torrance, CA). NG108-15 cells are cultured in […] Corning flasks (Fisher Scientific, Cincinnati, OH) in Dulbecco's modified minimal essential medium (high glucose; Gibco, Grand Island, NY) containing 5% fetal bovine serum (Hyclone, Logan, UT) and HAT (hypoxanthine-aminopterin-thymidine, Sigma, St. Louis, MO). The concentration of cytosolic free Ca²⁺ ([Ca²⁺]i) is measured in suspensions of cultured NG108-15 cells loaded with the Ca²⁺-sensitive fluorescent indicator fura-2 essentially as described by Osugi et al. (Journal Pharmacol. Exp. Ther., Vol. 240, (1987), pp. 617-622). Flasks of confluent cells are incubated for 60 minutes at 37°C in 20 mls of HEPES-buffered saline [140 mM NaCl, 5.4 mM KCl, 0.8 mM MgSO₄, 1.0 mM CaCl₂, 20 mM HEPES (N-2-. hydroxyethylpiperazine-N′-2-ethanesulfonic acid; Behring Diagnostics, LaJolla, CA), 10 mM glucose, 0.25% bovine serum albumin (Cat. #A-4503; Sigma Chemical Co., St. Louis, MO)] containing fura-2 acetoxymethyl ester (Molecular Probes, Inc., Eugene, OR) at a final concentration of 2 µM. The flasks are then washed twice with 30 mls of HEPES-buffered saline and the cells detached from the flasks in 15 mls of HEPES-buffered saline. The cell suspension is centrifuged at 25°C for 5 minutes at 350 x g and the cell pellet resuspended to a final volume of approximately 10 ml of HEPES-buffered saline/flask. The cell suspension is maintained at room temperature prior to use. The fluorescence of the fura-2 loaded NG108-15 cells is measured at an excitation wavelength of 340 nm (10 nM slit) and an emission wavelength of 500 nm (10 nM slit) in a Perkin-Elmer LS-5 fluorescence spectrophotometer fitted with a magnetic stirrer and a thermostatted cell holder. An aliquot of the cell suspension (1.37 ml) is placed in a cylindrical glass cuvette (internal diameter of 8 mm) containing a teflon coated stir bar and warmed to 37°C in a water bath. After 5 minutes, the cuvette is placed in the cell holder of the fluorometer and stirring is initiated just prior to the addition of a test sample. Routinely, a test sample (0.014 ml of a 100-fold concentration solution) is added to the cuvette 30 seconds prior to the addition of 1 X 10⁻⁹ M bradykinin. Fluorescence is recorded continuously during the addition of the test sample and bradykinin. Following completion of the fluorescence measurements, the cells are lysed with Triton X-100 at a final concentration of 10% (v/v) and the fluorescence of the Ca²⁺ saturated fura-2 (Fmax; fluorescence in the presence of 1 mM Ca²⁺) and the Mn²⁺-quenched fura-2 (autofluorescence (AF); fluorescence in the presence of 2 mM Mn²⁺) determined. […]
# guinea pig ileum = assay: Guinea pig ileum assay (muscle contraction); conditions: negative log of the dose causing half maximal contraction
# Procedure: The bradykinin antagonists are assayed on guinea pig ileum for inhibition of the muscle-contracting activity of bradykinin, according to the commonly accepted assay method for bradykinin and related kinins as described in Stewart, J.M., "Chemistry and Biological Activity of Peptides Related to Bradykinin", Chapter V of Bradykinin, Kallidin and Kallikrein, (Handbook of Expt. Pharmacol.), E. G. Erdoes (ed.), Vol 25, Springer Verlag (pub.), 1970, pp. 242-243. The inhibition potencies are determined on isolated guinea pig ileum, according to the commonly accepted manner described for antagonists of biologically active compounds in Schild, H.O., "pA, a New Scale for the Measurement of Drug Antagonism", Br. J. Pharmacol., Vol. 2, No. 3 (1947), pp. 189-206). In the assay, a dose-response curve is determined for the reference substance bradykinin. The dose of bradykinin which produces a half maximal contraction of tissue is the ED₅₀ dose. An amount of bradykinin equivalent to twice the ED₅₀ dose is administered to the tissue 30 seconds after the start of incubation of the tissue with a dose of antagonist. Doses of antagonist are increased in this protocol until pre-incubation with a dose of antagonist reduces the contraction in response to the double ED₅₀ dose of bradykinin to response of a single ED₅₀ dose of bradykinin. […]
# Male CF-1 mice = assay: Mouse abdominal constriction test (phenylquinone-induced writhing); assay type: in vivo; conditions: for Change from Control (%): I.P.; for bradykinin agonist / antagonist activity in the assay: result in words, mouse abdominal constriction assay
# Procedure: Compounds of the present invention are tested for analgesic activity using the mouse abdominal constriction assay. This assay is described in Hendershot, L.C., & J. Forsaith, "Antagonism of the Frequency of Phenylquinone-induced Writhing in the Mouse by Weak Analgesics and Nonanalgesics", J. Pharmacol., Vol. 125, (1959), pp. 237-240, and in Methods in Narcotics Research, S. Ehrenpreis and A. Neidle, (eds.), Marcel Dekker, Inc., New York (pub.), 1975, pp. 64-65, the disclosures of both these references being incorporated herein in their entirety by reference.
# Male CF-1 mice (Charles River Breeding Laboratories, Inc.), weighing approximately 20 grams and food fasted overnight, are used in these assays. Test compounds are prepared for intraperitoneal (i.p.) injection, with compounds of the present invention being prepared in distilled deionized water so that the appropriate dose is given in 0.2 mls to a 20 gram mouse.
# An i.p. injection of 0.02% phenylquinone (2.5 mg/kg) is given at a concentration of 0.25 ml/20 grams body weight. Five minutes later the mice receive an i.p. injection of test compound. Five minutes after the i.p. injection of test compound, the number of full body writhes are counted for the succeeding ten minutes. Percent analgesia in this assay is calculated as follows: [formula]
# The mouse abdominal constriction assay was used to measure the antagonist activity of peptides of the present invention and related peptides as shown in Table 2: Table 2
compound,measurement,setting,value
"N=C(N)NCCC[C@@H](N)C(=O)N[C@@H](CCCNC(=N)N)C(=O)N1CCC[C@H]1C(=O)N[C@@H](CC(N)=O)C(=O)NCC(=O)N[C@@H](Cc1ccccc1)C(=O)N[C@@H](CO)C(=O)N[C@H](Cc1ccccc1)C(=O)N[C@@H](Cc1ccccc1)C(=O)N[C@@H](CCCNC(=N)N)C(=O)O [Compound 6, H-DArg-Arg-Pro-Asn-Gly-Phe-Ser-DPhe-Phe-Arg-OH] (H-[dR]RPNGFS[dF]FR-OH)",agonist / antagonist activity in this assay,Bradykinin receptor,Compounds 2 and 6 are peptides of the present invention and both exhibit only antagonist (no agonist) activity in this assay.
"bradykinin (RPPGFSPFR; Bradykinin; UniProt P01042 381-389, looked up) [naturally occurring agonist nonapeptide]",[Ca²⁺]i at maximally effective concentration,"Bradykinin receptor; 1 X 10⁻⁶M bradykinin, basal concentration about 260 nM",approximately 1000 nM
same,pD2 value,guinea pig ileum,7.4
"N=C(N)NCCC[C@H](NC(=O)[C@H](Cc1ccccc1)NC(=O)[C@@H](Cc1ccccc1)NC(=O)[C@H](CO)NC(=O)[C@H](Cc1ccccc1)NC(=O)CNC(=O)[C@H](CC(N)=O)NC(=O)[C@@H]1CCCN1C(=O)[C@@H](N)CCCNC(=N)N)C(=O)O [Compound 2, H-Arg-Pro-Asn-Gly-Phe-Ser-DPhe-Phe-Arg-OH] (H-RPNGFS[dF]FR-OH)",Change from Control (%),Male CF-1 mice; Dose 50 mg/kg,57%
same,bradykinin agonist / antagonist activity in the assay,Male CF-1 mice,bradykinin antagonist activity
same,agonist / antagonist activity in this assay,Bradykinin receptor,Compounds 2 and 6 are peptides of the present invention and both exhibit only antagonist (no agonist) activity in this assay.
"N=C(N)NCCC[C@H](NC(=O)[C@H](Cc1ccccc1)NC(=O)[C@@H](Cc1ccccc1)NC(=O)[C@H](CO)NC(=O)[C@H](Cc1ccccc1)NC(=O)[C@H]1CCCN1C(=O)[C@H](CC(N)=O)NC(=O)[C@@H]1CCCN1C(=O)[C@@H](N)CCCNC(=N)N)C(=O)O [Compound 3, H-Arg-Pro-Asn-DPro-Phe-Ser-DPhe-Phe-Arg-OH] (H-RPN[dP]FS[dF]FR-OH)",Change from Control (%),Male CF-1 mice; Dose 50 mg/kg,72% and 61%
same,bradykinin agonist / antagonist activity in the assay,Male CF-1 mice,bradykinin antagonist activity
"N=C(N)NCCC[C@H](NC(=O)[C@H](Cc1ccccc1)NC(=O)[C@@H](Cc1ccccc1)NC(=O)[C@H](CO)NC(=O)[C@H](Cc1ccccc1)NC(=O)CNC(=O)[C@@H]1C[C@@H](O)CN1C(=O)[C@@H]1CCCN1C(=O)[C@@H](N)CCCNC(=N)N)C(=O)O [Compound 1, H-Arg-Pro-Hyp-Gly-Phe-Ser-DPhe-Phe-Arg-OH, reference compound] (H-RP[Hyp]GFS[dF]FR-OH)",Change from Control (%),"Male CF-1 mice; Dose 25 mg/kg, negative value = agonist",-31%
same,bradykinin agonist / antagonist activity in the assay,Male CF-1 mice,bradykinin agonist
same,IC₅₀,Bradykinin receptor; inhibition by 50% of the increase in [Ca²⁺]i induced by 1 X 10⁻⁹M bradykinin,Partial Agonist*
same,agonist / antagonist activity in this assay,Bradykinin receptor,high agonist (bradykinin-like) activity
H-Arg-Pro-Aap-Gly-Phe-Ser-DPhe-Phe-Arg-OH [Compound 4],Change from Control (%),Male CF-1 mice; Dose 50 mg/kg,46%
same,bradykinin agonist / antagonist activity in the assay,Male CF-1 mice,bradykinin antagonist activity
H-DArg-Arg-Pro-Hyp-Gly-Phe-Ser-DPhe-Phe-Arg-OH [Compound 5],agonist activity,Bradykinin receptor; printed beside the IC₅₀,10%
same,agonist / antagonist activity in this assay,Bradykinin receptor,small amount of agonist activity
